Values after ≈ are worked out from the molar mass of the structure shown.
Assays:
[1] = system: S. aureus; assay: Antimicrobial screening, zone of inhibition; format: cell-based; conditions: Table 1
Experimental: The procedure was performed according to […] et al.. A comparison of the extract's zone of inhibition to that of a reference antibiotic's activity index was determined using the following equation:Activity index = (the inhibition zone of extract/the inhibition zone of the standard) × 100

[2] = system: SARS-CoV-2 main protease Mpro or 3CLpro; conditions: cited from earlier work
[3] = system: SOD; assay: SOD activity in rat paw tissue homogenate (carrageenan model); format: in vivo; conditions: for SOD (U/gm Tissue): paw tissue 5 h after carrageenan
Experimental: (§1) The levels of inflammatory mediators (IL-1β, TNF-α, and PGE2) in rat paw tissue homogenate were measured using the following Kits: Rat TNF-α (Tumor Necrosis Factor Alpha) ELISA Kit from Elabscience® Company, Houston, TX, USA, Interleukin 1 Beta (IL-1b) Organism Species: Rattus norvegicus (Rat) from Cloud Clone Crop Company and Rat PGE2 (Prostaglandin E2) ELISA Kit from Fine test® company Hubei, China. In addition, oxidative stress parameters in rat paw tissue homogenate were measured using superoxide dismutase, glutathione peroxidase, and catalase Kits from the Biodiagnostic company, Birmingham, UK.
(§2) Rats were slaughtered, and their paw tissues were gathered and weighed five hours after the carrageenan was administered. The tissues underwent processing after being fixed in 10% formalin. Rat paw tissue was homogenized, and its oxidative stress indices (SOD, CAT, and GPx) as well as the levels of inflammatory mediators (IL-1β, TNF-α, and PGE2) were measured.

[4] = system: IL-1β; assay: IL-1β in rat paw tissue homogenate (carrageenan model); format: in vivo; conditions: doses of 20 and 40 mg/kg; compared to the vehicle control group
Experimental: as §1, §2

[5] = system: CAT; assay: CAT activity in rat paw tissue homogenate (carrageenan model); format: in vivo; conditions: for CAT (U/gm Tissue): paw tissue 5 h after carrageenan
Experimental: as §1, §2

[6] = system: carrageenan-induced paw oedema; assay: Carrageenan-induced paw oedema; format: in vivo; conditions: rat
Experimental: Adult albino rats 180-220 g of both sexes used in the investigation were acquired from the Mansoura University Faculty of Pharmacy's Animal House. Standard laboratory diet and water were provided, and they were housed in cages maintained at a constant temperature of 22 ± 2 °C. The Animal Care and Use Committee (MU-ACUC) of Mansoura University, Egypt, has approved all procedures involving animals with code number: […] Throughout the experiment, medications and extracts were given orally in doses of 1 mL/100 g of the rat's body weight after being solubilized in carboxymethyl cellulose (CMC) in order to create a suspension formula. In this test, rats were divided into six groups, with each group containing 5 animals. Group-1: […] Group-2: Positive control (carrageenan-induced oedema, Sigma (St. Louis, MO, USA)) without any treatment. […] Group-4: […] extract of Lactuca sativa was administered at a 2 g/kg dose. Group-5: Compound (1) is administered at a dose of 20 mg/kg. Group-6: Compound (1) at a dose of 40 mg/kg. Group-7: Combination of standard and compound (1) at doses of (10 + 20) mg/kg, respectively. […] Using a digital vernier calliper, the swelling of the paw that had been injected with carrageenan was measured prior to injection as well as 1, 2, 3, 4, and 5 h following the treatment's induction. The percentage inhibition of oedema in the test animals treated with the extract compared to the carrageenan control group was used to calculate the anti-inflammatory activity. The formula […] was used to calculate the percentage inhibition of inflammation, where “dt” represents the difference in paw volume in the drug-treated group and “dc” represents the difference in paw volume relative to the control group. Moreover, “I” represents the suppression of inflammation.

[7] = system: TNF-α; assay: TNF-α in rat paw tissue homogenate (carrageenan model); format: in vivo; conditions: doses of 20 and 40 mg/kg; compared to the vehicle control group
Experimental: as §1, §2

[8] = system: IL-6 production in TNF-a-stimulated MG-63 cells; conditions: cited from earlier work
[9] = system: GPx; assay: GPx activity in rat paw tissue homogenate (carrageenan model); format: in vivo; conditions: for GPx (U/gm Tissue): paw tissue 5 h after carrageenan
Experimental: as §1, §2

[10] = Cytotoxic activity (MTT assay), normal cells; format: cell-based; conditions: human, WI-38 normal lung fibroblast cells; MTT; normal cells; read-out: In Vitro Cytotoxicity IC50 (µg/mL) WI-38
Experimental: The HPLC was performed in the Institute for Plant Biology, TU Braunschweig, using a Young Lin quaternary pump, vacuum degasser, column oven (40 °C), diode array detector (YL9160 PDA), and a Midas Spark Holland autosampler. UV spectra (λ max) were measured in the central laboratory of the Faculty of Pharmaceutical Science at Mansoura University using spectroscopic methanol with an ultraviolet-visible spectrophotometer (Shimadzu 1601 PC, version TCC-240A, Kyoto, Japan). The NMR unit of Mansoura University’s Faculty of Pharmacy obtained nuclear magnetic resonance spectra (^1H-NMR, ^13C-NMR, DEPT-Q, APT, HSQC, and HMBC) using a Bruker DRX 600 NMR spectrometer (600 and 150 MHz for ^1H and ^13C-NMR, respectively) and with the Bruker Corporation Avance III 400 spectrometer, which measures ^1H and ^13C-NMR at 400 and 100 MHz, respectively. The types of solvents that are used are CDCl3, CD3OD, and DMSO-d6. For normal phase chromatography, silica gel G 60–230 mesh (Merck, Darmstadt, Germany) was packed using a wet or dry method in the specified solvent. The purchase of Normal Human lung fibroblast (WI-38), hepatic cancer cell lines (HePG-2), and mammary gland (MCF-7) cell lines from ATCC was made possible by the Holding firm for biological goods and vaccines (VACSERA), which is based in Cairo, Egypt.
Using the MTT test, the inhibitory effects of substances on cell growth were ascertained using the cell lines compared to normal lung fibroblast cells (WI-38). The selectivity index was calculated via the Selectivity index (SI) equation: SI equals IC50 normal/IC50 cancer.

[11] = 40 mg/kg, compared to the control group

NC(CO)C(O)c1ccc2c(c1)OCO2 (stereo not drawn) [Compound 1, 1,3-propanediol-2-amino-1-(3′,4′-methylenedioxyphenyl)]
zone of inhibition at 1000 µg/mL ([1]; Staphylococcus aureus, isolated compounds 1 mg/mL, read-out: S. aureus Diameter of Inhibition Zone (mm)): 6.9 ± 0.1 mm | S. aureus %Activity Index ([1]; 1 mg/mL, relative to ciprofloxacin): 28.9% | inhibitory activity against SARS-CoV-2 main protease [2]: moderate inhibitory activities | SOD activity restored [3, 11]: 71.43% | SOD (U/gm Tissue) ([3]; 20 mg/kg): 118.35 ± 1.06 U/gm Tissue | SOD (U/gm Tissue) ([3]; 40 mg/kg): 135.05 ± 11.67 U/gm Tissue | IL-1β level in paw tissue [4]: significant reduction | CAT activity restored [5, 11]: 72.08% | CAT (U/gm Tissue) ([5]; 20 mg/kg): 1.50 ± 0.19 U/gm Tissue | CAT (U/gm Tissue) ([5]; 40 mg/kg): 2.04 ± 0.26 U/gm Tissue | % Inhibition (%I) of paw oedema ([6]; 1 h, dose 20 mg/kg oral): 10.25% | Increase in Paw Oedema ([6]; 1 h, dose 20 mg/kg oral): 1.05 ± 0.20 mL | % Inhibition (%I) of paw oedema ([6]; 1 h, dose 40 mg/kg oral): 16.32% | Increase in Paw Oedema ([6]; 1 h, dose 40 mg/kg oral): 0.77 ± 0.28 mL | % Inhibition (%I) of paw oedema ([6]; 2 h, dose 20 mg/kg oral): 23.51% | Increase in Paw Oedema ([6]; 2 h, dose 20 mg/kg oral): 1.81 ± 0.44 mL | % Inhibition (%I) of paw oedema ([6]; 2 h, dose 40 mg/kg oral): 27.07% | Increase in Paw Oedema ([6]; 2 h, dose 40 mg/kg oral): 1.59 ± 0.22 mL | % Inhibition (%I) of paw oedema ([6]; 3 h, dose 20 mg/kg oral): 23.77% | Increase in Paw Oedema ([6]; 3 h, dose 20 mg/kg oral): 2.26 ± 0.28 mL | % Inhibition (%I) of paw oedema ([6]; 3 h, dose 40 mg/kg oral): 26.1% | Increase in Paw Oedema ([6]; 3 h, dose 40 mg/kg oral): 2.11 ± 0.29 mL | % Inhibition (%I) of paw oedema ([6]; 4 h, dose 20 mg/kg oral): 45.36% | Increase in Paw Oedema ([6]; 4 h, dose 20 mg/kg oral): 2.18 ± 0.74 mL | % Inhibition (%I) of paw oedema ([6]; 4 h, dose 40 mg/kg oral): 55.39% | Increase in Paw Oedema ([6]; 4 h, dose 40 mg/kg oral): 1.78 ± 0.45 mL | % Inhibition (%I) of paw oedema ([6]; 5 h, dose 20 mg/kg oral): 57.63% | Increase in Paw Oedema ([6]; 5 h, dose 20 mg/kg oral): 1.75 ± 0.46 mL | % Inhibition (%I) of paw oedema ([6]; 5 h, dose 40 mg/kg oral): 63.92% | Increase in Paw Oedema ([6]; 5 h, dose 40 mg/kg oral): 1.49 ± 0.49 mL | TNF-α level in paw tissue [7]: significant reduction | inhibition of IL-6 production [8]: strong inhibitory | GPx activity restored [9, 11]: 73.17% | GPx (U/gm Tissue) ([9]; 20 mg/kg): 77.65 ± 3.18 U/gm Tissue | GPx (U/gm Tissue) ([9]; 40 mg/kg): 86.75 ± 6.01 U/gm Tissue | IC50 [10]: 61.7 ± 3.4 µg/mL (≈ 292 µM)
